Publication PMC7127754 (Bioorganic & Medicinal Chemistry, 2008)

Biological target: SARS-CoV 3CL protease (Severe acute respiratory syndrome coronavirus, UniProt P0C6X7)
Assay: biochemical
Conditions: IC50 (inhibition of SARS-CoV 3CL protease)

| SMILES | IC50 [µM] |
| --- | --- |
| CCCCCCCCC(=O)N[C@@H](CC(C)C)C(=O)NC(Cc1ccccc1)C(=O)C(F)(F)F (mixture of isomers) [Compound 5g, 3-{N-[N-CH3(CH2)7(C?O)-L-Leu]}-4-phenyl-1,1,1-trifluorobutan-2-one] | > 50 |
| C[C@H](NC(=O)CC[C@H](NC(=O)OC(C)(C)C)C(=O)OC(C)(C)C)C(=O)NCC(=O)C(F)(F)F [Compound 5d, 3-{N-[N-tert-Butoxycarbonyl-L-γGlu(OtBu)-L-Ala]}-1,1,1-trifluoropropan-2-one] | 40 |
